Measurements reported in ChEMBL document CHEMBL4665836, “Overcoming β-Lactam resistance in Pseudomonas aeruginosa using non-canonical tobramycin-based antibiotic adjuvants” (2020).
Converted amounts (≈) assume the structure as drawn.

Columns and labels:
Assay type in all cases: functional
[1] = system: Pseudomonas aeruginosa; experiment: Potentiation of aztreonam-induced antibacterial activity against carbapenem-resistant Pseudomonas aeruginosa 108590 clinical isolate assessed as fold reduction in aztreonam MIC at 8 uM
[2] = system: Pseudomonas aeruginosa; experiment: Potentiation of aztreonam-induced antibacterial activity against carbapenem-resistant Pseudomonas aeruginosa 86052 clinical isolate assessed as fold reduction in aztreonam MIC at 8 uM
[3] = system: Pseudomonas aeruginosa; experiment: Potentiation of ceftazidime-induced antibacterial activity against carbapenem-resistant Pseudomonas aeruginosa 108590 clinical isolate assessed as fold reduction in ceftazidime MIC at 8 uM
[4] = system: Pseudomonas aeruginosa; experiment: Potentiation of aztreonam-induced antibacterial activity against carbapenem-resistant Pseudomonas aeruginosa 107092 clinical isolate assessed as fold reduction in aztreonam MIC at 8 uM
[5] = system: Pseudomonas aeruginosa; experiment: Potentiation of aztreonam-induced antibacterial activity against carbapenem-resistant Pseudomonas aeruginosa 88949 clinical isolate assessed as fold reduction in aztreonam MIC at 8 uM
[6] = system: Pseudomonas aeruginosa; experiment: Potentiation of aztreonam-induced antibacterial activity against carbapenem-resistant Pseudomonas aeruginosa 109084 clinical isolate assessed as fold reduction in aztreonam MIC at 8 uM
[7] = system: Pseudomonas aeruginosa; experiment: Potentiation of ceftazidime-induced antibacterial activity against carbapenem-resistant Pseudomonas aeruginosa 107092 clinical isolate assessed as fold reduction in ceftazidime MIC at 8 uM
[8] = system: Pseudomonas aeruginosa; experiment: Potentiation of ceftazidime-induced antibacterial activity against carbapenem-resistant Pseudomonas aeruginosa 86052 clinical isolate assessed as fold reduction in ceftazidime MIC at 8 uM
[9] = system: Pseudomonas aeruginosa; experiment: Potentiation of ceftazidime-induced antibacterial activity against carbapenem-resistant Pseudomonas aeruginosa 88949 clinical isolate assessed as fold reduction in ceftazidime MIC at 8 uM
[10] = system: Pseudomonas aeruginosa; experiment: Potentiation of ceftazidime-induced antibacterial activity against carbapenem-resistant Pseudomonas aeruginosa 109084 clinical isolate assessed as fold reduction in ceftazidime MIC at 8 uM
[11] = system: Pseudomonas aeruginosa; experiment: Antibacterial activity against Pseudomonas aeruginosa PAO750 harboring mexAB-oprM/mexCD-oprJ/mexEF-oprN/mexJK/mexXY/opmH efflux deficient mutant
[12] = system: Pseudomonas aeruginosa; experiment: Antibacterial activity against Pseudomonas aeruginosa PAO200 harboring mexAB-oprM efflux deficient mutant
[13] = system: Pseudomonas aeruginosa; experiment: Potentiation of imipenem-induced antibacterial activity against carbapenem-resistant Pseudomonas aeruginosa 107092 clinical isolate assessed as fold reduction in imipenem MIC at 8 uM
[14] = system: Pseudomonas aeruginosa; experiment: Potentiation of imipenem-induced antibacterial activity against carbapenem-resistant Pseudomonas aeruginosa 88949 clinical isolate assessed as fold reduction in imipenem MIC at 8 uM
[15] = system: Pseudomonas aeruginosa; experiment: Potentiation of imipenem-induced antibacterial activity against carbapenem-resistant Pseudomonas aeruginosa 86052 clinical isolate assessed as fold reduction in imipenem MIC at 8 uM
[16] = system: Pseudomonas aeruginosa; experiment: Potentiation of imipenem-induced antibacterial activity against carbapenem-resistant Pseudomonas aeruginosa 108590 clinical isolate assessed as fold reduction in imipenem MIC at 8 uM
[17] = system: Pseudomonas aeruginosa; experiment: Potentiation of imipenem-induced antibacterial activity against carbapenem-resistant Pseudomonas aeruginosa 109084 clinical isolate assessed as fold reduction in imipenem MIC at 8 uM
[18] = system: Pseudomonas aeruginosa; experiment: Antibacterial activity against wild type Pseudomonas aeruginosa PAO1

**Q.** What does the source list for `NC(=O)[C@@H]1CC[C@@H]2CN1C(=O)N2OS(=O)(=O)O` [AVIBACTAM]?
**A.** fold change (FC) [1]: 2; fold change (FC) [2]: 2; fold change (FC) [3]: 2; fold change (FC) [4]: 2; fold change (FC) [5]: 2; fold change (FC) [6]: 2; fold change (FC) [7]: 2; fold change (FC) [8]: 2; fold change (FC) [9]: 2; fold change (FC) [10]: 2

**Q.** For `O=C(O)c1cn(C2CC2)c2cc(N3CCNCC3)c(F)cc2c1=O` [CIPROFLOXACIN], which MIC [11] is on record?
**A.** Its MIC is 0.0078 µg/mL (≈ 0.0235 µM).

**Q.** And the MIC [12]?
**A.** The MIC was 0.0156 µg/mL (≈ 0.0471 µM).

**Q.** What does the source list for `O.O=C(NC1CCNCC1)[C@@H]1CC[C@@H]2CN1C(=O)N2OS(=O)(=O)O` [RELEBACTAM]?
**A.** fold change (FC) [13]: 2; fold change (FC) [14]: 2; fold change (FC) [15]: 2; fold change (FC) [16]: 2; fold change (FC) [17]: 2

**Q.** For `NC[C@H]1O[C@H](O[C@H]2[C@H](O)[C@@H](O[C@H]3O[C@H](CO)[C@@H](O)[C@H](N)[C@H]3O)[C@H](N)C[C@@H]2N)[C@H](N)C[C@@H]1O` [TOBRAMYCIN], which MIC [11] is on record?
**A.** Its MIC is 1 µg/mL (≈ 2.14 µM).

**Q.** What about the MIC [12] of the same compound?
**A.** The MIC was 1 µg/mL (≈ 2.14 µM).

**Q.** What about the MIC [18] of the same compound?
**A.** The MIC was 1 µg/mL (≈ 2.14 µM).
